Data: ChEMBL document CHEMBL3272046, “Adrenerigic agents. 7.1 Synthesis and beta-adrenergic agonist activity of several 2-pyridylethanolamines” (J Med Chem, 1977)

Experiments:
Format in all cases: tissue-based
[1] = organism: Cavia porcellus; experiment: Agonist activity at beta-adrenergic receptor in guinea pig tracheal tissue assessed as bronchodilator activity; details: Trachea
[2] = organism: Cavia porcellus; experiment: Agonist activity at beta-adrenergic receptor in guinea pig right atrial muscle assessed as rate of contraction of spontaneously beating atria; details: Cardiac atrium
[3] = organism: Cavia porcellus; experiment: Intrinsic activity at beta-adrenergic receptor in guinea pig right atrial muscle assessed as rate of contraction of spontaneously beating atria relative to isoproterenol; details: Cardiac atrium
[4] = organism: Cavia porcellus; experiment: Selectivity ratio of ED25 for beta-adrenergic receptor in guinea pig right atrial muscle to ED50 for beta-adrenergic receptor in guinea pig tracheal tissue; details: Cardiac atrium
[5] = organism: Cavia porcellus; experiment: Agonist activity at beta-adrenergic receptor in guinea pig right atrial muscle assessed as rate of contraction of spontaneously beating atria at 9.9 x 10^-5 M; details: Cardiac atrium
[6] = organism: Cavia porcellus; experiment: Agonist activity at beta-adrenergic receptor in guinea pig right atrial muscle assessed as rate of contraction of spontaneously beating atria at 1.7 x 10^-5 M; details: Cardiac atrium

| ED50 [1] | ED25 [2] | Intrinsic activity [3] | Selectivity ratio [4] | Activity [5] [%] | Activity [6] [%] | Compound |
| --- | --- | --- | --- | --- | --- | --- |
| 7.1 ×10⁻⁹ M | 3.4 ×10⁻⁹ M |  |  |  |  | CC(C)NCC(O)c1ccc(O)c(O)c1 (stereo not given) |
| 2.9 ×10⁻⁸ M | 9.9 ×10⁻⁵ M |  | > 3410 | 13 |  | CC(C)(C)NCC(O)c1ccc(O)c(CS(C)(=O)=O)n1 (stereo not given) |
| 3.1 ×10⁻⁷ M | 1.7 ×10⁻⁵ M |  | > 182 |  | 7 | CC(C)(C)NCC(O)c1ccc(O)cn1 (stereo not given) |
| 1.7 ×10⁻⁸ M | 2.8 ×10⁻⁵ M | 0.3 | 1650 |  |  | CC(C)(C)NCC(O)c1ccc(O)c(CS(C)(=O)=O)c1 (stereo not given) |
| 2.8 ×10⁻⁹ M | 1.2 ×10⁻⁷ M | 0.8 | 43 |  |  | CC(C)(C)NCC(O)c1ccc(O)c(CO)n1 (stereo not given) |
| 1.1 ×10⁻⁸ M | 3.1 ×10⁻⁷ M | 0.7 | 28 |  |  | CC(C)(C)NCC(O)c1ccc(O)c(CO)c1 (stereo not given) |
| 2.8 ×10⁻⁷ M | 1 ×10⁻⁵ M | 0.4 | 36 |  |  | Cc1nc(C(O)CNC(C)(C)C)ccc1O (stereo not given) |

| Compound | ED50 [1] | ED25 [2] | Intrinsic activity [3] | Selectivity ratio [4] | Activity [5] [%] | Activity [6] [%] |
| --- | --- | --- | --- | --- | --- | --- |
| CC(C)NCC(O)c1ccc(O)cc1 (stereo not given) | 1.1 ×10⁻⁷ M | 7.7 ×10⁻⁸ M | 0.8 | 0.7 |  |  |
